Laboratory results from PubChem BioAssay AID248 (DTP/NCI, 2004).
Where “and” joins values, the source holds several entries; their conditions need not be identical. Equal values may be shown once. Inconclusive results and toxic doses are left out. Cut-off read from the data, not from the text of the source: active = T/C of 150% or more; inactive = T/C below 125%.

System: L1210 leukemia ip in BDF1 mice, survival T/C
Assay: NCI In Vivo Anticancer Drug Screen. Data for tumor model L1210 Leukemia (intraperitoneal) in B6D2F1 (BDF1) mice
Settings: endpoint: mean survival time, higher = longer survival
In short: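 Survival endpoint. Drug-treated group vs vehicle group, expressed as T divided by C. Tumor passaged by transplantation.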

[1] = dose: 100.0 mg/kg/injection, schedule: Q04DX002 (ip), vehicle: Klucel (hydroxypropylcellulose) (HPC)
[2] = dose: 100.0 mg/kg/injection, schedule: Q04DX003 (ip), vehicle: saline with Tween-80
[3] = dose: 200.0 mg/kg/injection, schedule: Q04DX002 (ip), vehicle: Klucel (hydroxypropylcellulose) (HPC)
[4] = dose: 200.0 mg/kg/injection, schedule: Q04DX003 (ip), vehicle: saline with Tween-80
[5] = dose: 400.0 mg/kg/injection, schedule: Q04DX002 (ip), vehicle: Klucel (hydroxypropylcellulose) (HPC)
[6] = dose: 400.0 mg/kg/injection, schedule: Q04DX003 (ip), vehicle: saline with Tween-80
[7] = dose: 100.0 mg/kg/injection, schedule: Q01DX009 (ip), vehicle: Klucel (hydroxypropylcellulose) (HPC)
[8] = dose: 100.0 mg/kg/injection, schedule: Q04DX003 (ip), vehicle: Klucel (hydroxypropylcellulose) (HPC)
[9] = dose: 200.0 mg/kg/injection, schedule: Q01DX009 (ip), vehicle: Klucel (hydroxypropylcellulose) (HPC)
[10] = dose: 200.0 mg/kg/injection, schedule: Q04DX003 (ip), vehicle: Klucel (hydroxypropylcellulose) (HPC)

Measured: T/C

O=C(O)C1C2CCCCC2=C2CCCCC2C1C(=O)O (centres undefined)
inactive: [1] 90 % of control | [2] 93 % of control | [3] 98 % of control | [4] 94 % of control | [5] 93 % of control | [6] 91 % of control

Nn1c(=O)[nH][nH]c1=O
inactive: [7] 113 % of control | [8] 97 % of control and 109 % of control | [9] 97 % of control | [10] 105 % of control and 91 % of control | dose: 400.0 mg/kg/injection, schedule: Q04DX003 (ip), vehicle: Klucel (hydroxypropylcellulose) (HPC) 109 % of control

Brc1ccc2c(c1)CCC2
inactive: dose: 50.0 mg/kg/injection, schedule: Q01DX001 (ip), vehicle: saline 93 % of control | dose: 100.0 mg/kg/injection, schedule: Q01DX001 (ip), vehicle: saline 106 % of control and 88 % of control | dose: 200.0 mg/kg/injection, schedule: Q01DX001 (ip), vehicle: saline 94 % of control and 95 % of control | dose: 400.0 mg/kg/injection, schedule: Q01DX001 (ip), vehicle: saline 97 % of control and 98 % of control

ClCCN(CCCl)CCCN1c2ccccc2Sc2ccc(Cl)cc21
inactive: dose: 1.56 mg/kg/injection, schedule: Q01DX009 (ip), vehicle: saline with Tween-80 100 % of control | dose: 3.12 mg/kg/injection, schedule: Q01DX001 (ip), vehicle: saline with Tween-80 105 % of control | dose: 3.12 mg/kg/injection, schedule: Q01DX009 (ip), vehicle: saline with Tween-80 112 % of control | dose: 6.25 mg/kg/injection, schedule: Q01DX001 (ip), vehicle: saline with Tween-80 103 % of control | dose: 6.25 mg/kg/injection, schedule: Q01DX009 (ip), vehicle: saline with Tween-80 110 % of control | dose: 6.25 mg/kg/injection, schedule: Q04DX003 (ip), vehicle: saline with Tween-80 102 % of control | dose: 12.5 mg/kg/injection, schedule: Q01DX001 (ip), vehicle: saline with Tween-80 108 % of control | dose: 12.5 mg/kg/injection, schedule: Q01DX009 (ip), vehicle: saline with Tween-80 112 % of control | dose: 12.5 mg/kg/injection, schedule: Q04DX003 (ip), vehicle: saline with Tween-80 107 % of control | dose: 25.0 mg/kg/injection, schedule: Q04DX003 (ip), vehicle: saline with Tween-80 110 % of control | dose: 50.0 mg/kg/injection, schedule: Q04DX003 (ip), vehicle: saline with Tween-80 122 % of control

COC(=O)C1(C)CCCC2(C)C3CCC4(C)CC3(CCC12)CC4S(=O)(=O)c1ccc(C)cc1 (centres undefined)
inactive: dose: 12.5 mg/kg/injection, schedule: Q04DX002 (ip), vehicle: Klucel (hydroxypropylcellulose) (HPC) 100 % of control | dose: 25.0 mg/kg/injection, schedule: Q04DX002 (ip), vehicle: Klucel (hydroxypropylcellulose) (HPC) 89 % of control | dose: 50.0 mg/kg/injection, schedule: Q04DX002 (ip), vehicle: Klucel (hydroxypropylcellulose) (HPC) 95 % of control and 106 % of control | [3] 86 % of control

Cc1c(C(=O)O)nnn1-c1ccc(Cl)cc1Cl
inactive: [1] 97 % of control | [3] 101 % of control

Cc1cc(C)c(-c2cc(O)c(C)cc2O)c(C)c1
inactive: dose: 25.0 mg/kg/injection, schedule: Q01DX009 (ip), vehicle: other 103 % of control | dose: 50.0 mg/kg/injection, schedule: Q01DX009 (ip), vehicle: other 99 % of control | dose: 100.0 mg/kg/injection, schedule: Q01DX009 (ip), vehicle: other 101 % of control | dose: 200.0 mg/kg/injection, schedule: Q01DX009 (ip), vehicle: other 97 % of control | dose: 400.0 mg/kg/injection, schedule: Q01DX009 (ip), vehicle: other 100 % of control

COC(=O)/C(=C1\C=C(c2ccccc2)C(=O)O1)c1ccccc1
inactive: dose: 25.0 mg/kg/injection, schedule: Q01DX009 (ip), vehicle: Klucel (hydroxypropylcellulose) (HPC) 98 % of control | dose: 50.0 mg/kg/injection, schedule: Q01DX009 (ip), vehicle: Klucel (hydroxypropylcellulose) (HPC) 103 % of control

O=C(Nc1ccc(C(=O)Nc2ccc(C3=NCCCN3)cc2)cc1)Nc1ccc(C2=NCCCN2)cc1
inactive: dose: 0.94 mg/kg/injection, schedule: Q01DX Z (ip), vehicle: saline 103 % of control | dose: 1.88 mg/kg/injection, schedule: Q01DX Z (ip), vehicle: saline 117 % of control | dose: 18.8 mg/kg/injection, schedule: Q01DX004 (oral), vehicle: saline 94 % of control | dose: 37.5 mg/kg/injection, schedule: Q01DX009 (oral), vehicle: saline 91 % of control | dose: 75.0 mg/kg/injection, schedule: Q01DX009 (oral), vehicle: saline 93 % of control | dose: 150.0 mg/kg/injection, schedule: Q01DX004 (oral), vehicle: saline 93 % of control

N#CCCO
inactive: dose: 25.0 mg/kg/injection, schedule: Q04DX002 (ip), vehicle: saline 98 % of control | dose: 50.0 mg/kg/injection, schedule: Q04DX002 (ip), vehicle: saline 101 % of control | dose: 100.0 mg/kg/injection, schedule: Q04DX002 (ip), vehicle: saline 110 % of control and 121 % of control | dose: 200.0 mg/kg/injection, schedule: Q04DX002 (ip), vehicle: saline 96 % of control | dose: 400.0 mg/kg/injection, schedule: Q04DX002 (ip), vehicle: saline 108 % of control

COc1ccc(C)cc1NC(=O)C(Br)C(Br)C(=O)O (centres undefined)
inactive: [7] 100 % of control | [9] 97 % of control | dose: 400.0 mg/kg/injection, schedule: Q01DX009 (ip), vehicle: Klucel (hydroxypropylcellulose) (HPC) 96 % of control

NC(=O)NN=C1COC(c2ccccc2)OC1 (centres undefined)
inactive: dose: 50.0 mg/kg/injection, schedule: Q01DX009 (ip), vehicle: saline 98 % of control | dose: 100.0 mg/kg/injection, schedule: Q01DX009 (ip), vehicle: saline 89 % of control | dose: 100.0 mg/kg/injection, schedule: Q04DX003 (ip), vehicle: saline 101 % of control | dose: 200.0 mg/kg/injection, schedule: Q04DX003 (ip), vehicle: saline 93 % of control

CC12c3ccccc3C(C)(c3c1ccc1ccccc31)C1C(=O)OC(=O)C12 (centres undefined)
inactive: dose: 25.6 mg/kg/injection, schedule: Q04DX002 (ip), vehicle: Klucel (hydroxypropylcellulose) (HPC) 88 % of control | dose: 64.0 mg/kg/injection, schedule: Q04DX002 (ip), vehicle: Klucel (hydroxypropylcellulose) (HPC) 92 % of control | dose: 160.0 mg/kg/injection, schedule: Q04DX002 (ip), vehicle: Klucel (hydroxypropylcellulose) (HPC) 88 % of control | [5] 98 % of control

Nc1ccc2c(c1)Cc1cc(NC(=O)C(F)(F)F)ccc1-2
inactive: [2] 100 % of control | [4] 96 % of control | [6] 92 % of control

SCCSCCNc1ccccc1
inactive: dose: 50.0 mg/kg/injection, schedule: Q01DX009 (ip), vehicle: saline with Tween-80 101 % of control | dose: 100.0 mg/kg/injection, schedule: Q01DX009 (ip), vehicle: saline with Tween-80 101 % of control | dose: 200.0 mg/kg/injection, schedule: Q01DX009 (ip), vehicle: saline with Tween-80 101 % of control

Cc1cc(-c2ccc(N3C(=O)C=CC3=O)c(C)c2)ccc1N1C(=O)C=CC1=O
inactive: [8] 105 % of control | [10] 100 % of control
